Experimental data published in PubChem BioAssay AID1963832 (Molecular Pharmacology Branch, DTP, NCI, 2024).

Test system: 885724-159-R-J1-PDC complex spheroid viability
Test: Anticancer human tumor 885724-159-R-J1-PDC patient-derived pancreatic adenocarcinoma cell line growth inhibition [POLQ]
Conditions: for IC50: curve of first compound; for viability, T/C: stronger effect = lower value; active means viability on the fitted dose curve at most 10% of control; inactive means the rest
Protocol: Multicellular complex tumor spheroid response to Polymerase (POL) inhibitors (novobiocin, ART-558, RP6685) in combination with a variety of drugs and investigational agents in selected tumor cell lines
The POL inhibitors (novobiocin, ART-558, and RP6685) were evaluated both individually and in combination with standard of care and investigational anticancer small molecules within a complex spheroid model of solid tumors. . Complex spheroids include a stromal component modeled by human endothelial cells (HUVEC) and fibroblasts modeled by human mesenchymal stem cells (MSCs). The concentration ranges selected for each drug and investigational agent were based upon clinically achievable concentrations if the clinical Cmax of the agent was known.
Compounds. The drugs and investigational agents: novobiocin (NSC847541), ART-558 (NSC835418), RP-6685 (NSC848927), peposertib (NSC802822), ceralasertib (NSC780249), elimusertib (NSC800525), camonsertib (NSC841442), AZD-1390 (NSC803789), olaparib (NSC753686), talazoparib (NSC767125), rucaparib (NSC756644), sotorasib (NSC818433), MRTX-1133 (NSC836407), SN-38 (NSC673596), topotecan (NSC609699), epotoside (NSC141540), doxorubicin (NSC123127), gemcitabine (NSC613327), 5-fluorouracil (NSC19893), paclitaxel (NSC125973), vemurafenib (NSC761431), MSA-2 (NSC828583), SN-011 (NSC837082), adavosertib (NSC754352), prexasertib (NSC758257), carboplatin (NSC241240) and oxaliplatin (NSC266046), were obtained from the National Cancer Institute (NCI) Developmental Therapeutics Program Chemical Repository (21). The FDA-approved anticancer drug set is available from the Developmental Therapeutics Program at https://dtp.cancer.gov/organization/dscb/obtaining/. […] The stock solutions were prepared in dimethyl sulfoxide (DMSO, Sigma-Aldrich, St. Louis, MO, cat. D2650), except for the platinum compounds which were prepared in saline (Quality Biological, Gaithersburg, MD, cat. 114-055-101), at 800-fold the tested concentration and stored at -70 degrees C prior to their use. All drugs and investigational agents were tested over a range starting from a high concentration at or near the clinical Cmax and decreasing in half-log increments. If the clinical Cmax for an agent had not been determined, the highest concentration tested was 10 microM, except for SN-38, which was tested at a high concentration of 1 microM.
Cell Culture. All cells were maintained in an incubator at 37 degrees C and 5% CO2 with 95% humidity. The PDC lines were cultured according to standard operating procedures established by the NCI PDMR (https://pdmr.cancer.gov). Table 3 of the manuscript, lists the cell lines along with the number of the three cell types plated to form the mct-spheroids and media for tumor cell growth. After thawing, all PDC lines, except 997537-175-T-J1-PDC and 415267-285-R-J2-PDC, were cultured in Matrigel-coated flasks prepared with a working solution of 1X Ham's F-12 nutrient mix, without supplementation (Thermo Fisher Scientific, cat. 11765054), 100 U/mL penicillin-streptomycin (Thermo Fisher Scientific, cat. 15140122), and 2.5% Matrigel (Corning Inc., Corning, NY, cat. 354248) for the first three passages. The two PDC lines 997537-175-T-J1-PDC and 415267-285-R-J2-PDC were cultured on uncoated flasks. The 857933-349-R-J2-PDC line was cultured in 6C/Colon 1B media containing advanced DMEM/F-12 (Thermo Fisher Scientific, cat. 12634028), 10 mM HEPES (Thermo Fisher Scientific, cat. 15630080), 1X GlutaMAX supplement (Thermo Fisher Scientific, cat. 35050061), 0.1 mg/mL primocin (InvivoGen, San Diego, CA, cat. ant-pm-2), 10% defined fetal bovine serum, heat inactivated (HyClone Laboratories Inc., Logan, UT, cat. SH30070.03HI), 50% L-WRN conditioned media (ATCC, cat. CRL-3276), 1.25 mM N-Acetyl-L-cysteine (Sigma-Aldrich, cat. A9165), 10 mM nicotinamide (Sigma-Aldrich, cat. N0636), 1X B-27 supplement (Thermo Fisher Scientific, cat. 17504044), 1X N-2 supplement (Thermo Fisher Scientific, cat. […]

[1] = second compound 0.0316 µM, first compound 0.0316 µM
[2] = second compound 0.0316 µM, first compound 0.1 µM
[3] = second compound 0.0316 µM, first compound 0.316 µM
[4] = second compound 0.0316 µM, first compound 1 µM
[5] = second compound 0.0316 µM, first compound 3.16 µM
[6] = second compound 0.0316 µM, first compound 10 µM
[7] = second compound 0.1 µM, first compound 0.0316 µM
[8] = second compound 0.1 µM, first compound 0.1 µM
[9] = second compound 0.1 µM, first compound 0.316 µM
[10] = second compound 0.1 µM, first compound 1 µM
[11] = second compound 0.1 µM, first compound 3.16 µM
[12] = second compound 0.1 µM, first compound 10 µM
[13] = second compound 0.316 µM, first compound 0.0316 µM
[14] = second compound 0.316 µM, first compound 0.1 µM
[15] = second compound 0.316 µM, first compound 0.316 µM
[16] = second compound 0.316 µM, first compound 1 µM
[17] = second compound 0.316 µM, first compound 3.16 µM
[18] = second compound 0.316 µM, first compound 10 µM
[19] = second compound 1 µM, first compound 0.0316 µM
[20] = second compound 1 µM, first compound 0.1 µM
[21] = second compound 1 µM, first compound 0.316 µM
[22] = second compound 1 µM, first compound 1 µM
[23] = second compound 1 µM, first compound 3.16 µM
[24] = second compound 1 µM, first compound 10 µM
[25] = second compound 3.16 µM, first compound 0.0316 µM
[26] = second compound 3.16 µM, first compound 0.1 µM
[27] = second compound 3.16 µM, first compound 0.316 µM
[28] = second compound 3.16 µM, first compound 1 µM
[29] = second compound 3.16 µM, first compound 3.16 µM
[30] = second compound 3.16 µM, first compound 10 µM
[31] = second compound 10 µM, first compound 0.0316 µM
[32] = second compound 10 µM, first compound 0.1 µM
[33] = second compound 10 µM, first compound 0.316 µM
[34] = second compound 10 µM, first compound 1 µM
[35] = second compound 10 µM, first compound 3.16 µM
[36] = second compound 10 µM, first compound 10 µM
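Further: spheroids exposed to compounds for 7 days.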

C=CC(=O)N1CCN(c2nc(=O)n(-c3c(C)ccnc3C(C)C)c3nc(-c4c(O)cccc4F)c(F)cc23)C(C)C1 (centres undefined) + Nc1ccc(C#CCN(C(=O)Cc2ncc(C(F)(F)F)cc2C(F)(F)F)c2ccc(F)cc2)nn1
> 10 µM: IC50 (second compound 0.0316 µM) | IC50 (second compound 0.1 µM) | IC50 (second compound 0.316 µM) | IC50 (second compound 1 µM) | IC50 (second compound 3.16 µM) | IC50 (second compound 10 µM)
inactive: viability, T/C [1] 96.3% | viability, T/C [2] 86% | viability, T/C [3] 101% | viability, T/C [4] 106% | viability, T/C [5] 103% | viability, T/C [6] 98.6% | viability, T/C [7] 108% | viability, T/C [8] 112% | viability, T/C [9] 110% | viability, T/C [10] 102% | viability, T/C [11] 122% | viability, T/C [12] 94% | viability, T/C [13] 96.5% | viability, T/C [14] 102% | viability, T/C [15] 105% | viability, T/C [16] 102% | viability, T/C [17] 110% | viability, T/C [18] 90.4% | viability, T/C [19] 96.4% | viability, T/C [20] 87.5% | viability, T/C [21] 93.2% | viability, T/C [22] 109% | viability, T/C [23] 110% | viability, T/C [24] 97.3% | viability, T/C [25] 96.9% | viability, T/C [26] 92.9% | viability, T/C [27] 98.4% | viability, T/C [28] 100% | viability, T/C [29] 117% | viability, T/C [30] 83.6% | viability, T/C [31] 95.7% | viability, T/C [32] 104% | viability, T/C [33] 98.6% | viability, T/C [34] 111% | viability, T/C [35] 97.5% | viability, T/C [36] 91.1%

CCc1cc2c(N3CCc4c(cc(Cn5ccnc5)cc4-c4cn(C)nc4C(F)(F)F)C3=O)ccnc2c(OC)n1 + Nc1ccc(C#CCN(C(=O)Cc2ncc(C(F)(F)F)cc2C(F)(F)F)c2ccc(F)cc2)nn1
> 10 µM: IC50 (second compound 0.0316 µM) | IC50 (second compound 0.1 µM) | IC50 (second compound 0.316 µM) | IC50 (second compound 1 µM) | IC50 (second compound 3.16 µM) | IC50 (second compound 10 µM)
inactive: viability, T/C [1] 81.6% | viability, T/C [2] 85.8% | viability, T/C [3] 90.6% | viability, T/C [4] 90% | viability, T/C [5] 73.5% | viability, T/C [6] 64.4% | viability, T/C [7] 78.7% | viability, T/C [8] 81.9% | viability, T/C [9] 79.6% | viability, T/C [10] 84.7% | viability, T/C [11] 86.6% | viability, T/C [12] 67.6% | viability, T/C [13] 86.5% | viability, T/C [14] 86.6% | viability, T/C [15] 85.7% | viability, T/C [16] 80% | viability, T/C [17] 83.8% | viability, T/C [18] 69.8% | viability, T/C [19] 88.9% | viability, T/C [20] 74.2% | viability, T/C [21] 78.5% | viability, T/C [22] 80.8% | viability, T/C [23] 80.1% | viability, T/C [24] 70.8% | viability, T/C [25] 85.6% | viability, T/C [26] 74.2% | viability, T/C [27] 77% | viability, T/C [28] 81.4% | viability, T/C [29] 79.5% | viability, T/C [30] 68.1% | viability, T/C [31] 90.7% | viability, T/C [32] 80.7% | viability, T/C [33] 82.2% | viability, T/C [34] 83.8% | viability, T/C [35] 81.5% | viability, T/C [36] 68.3%
